In ChEMBL document CHEMBL1201862, “PubChem BioAssay data set” (2004):
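96-well plates; 48 h exposure; 5 concentrations. Endpoints by linear interpolation between flanking doses. Not reached: highest tested concentration assigned. GI50 is the concentration that inhibits growth by half.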 Activity calls are given as the source filed them. Rule as the data show it: active = GI50 up to about 1.1 µM and inactive = higher.

Columns and labels:
Assay in all cases: inhibition of tumour cell growth, NCI panel, 48 h
DMS-114 = test system: DMS-114
NCI-H226 = test system: NCI-H226
RPMI-8226 = test system: RPMI-8226
SN12C = test system: SN12C
NCI-H23 = test system: NCI-H23
HCC 2998 = test system: HCC 2998
DMS-273 = test system: DMS-273
Malme-3M = test system: Malme-3M
MOLT-4 = test system: MOLT-4
SNB-75 = test system: SNB-75
COLO 205 = test system: COLO 205
HT-29 = test system: HT-29
SNB-78 = test system: SNB-78
UACC-62 = test system: UACC-62
LXFL 529 = test system: LXFL 529
OVCAR-5 = test system: OVCAR-5
A549 = test system: A549
HOP-18 = test system: HOP-18
A498 = test system: A498
LOX IMVI = test system: LOX IMVI
KM12 = test system: KM12
M14 = test system: M14
SNB-19 = test system: SNB-19
RXF 393 = test system: RXF 393
CCRF-CEM = test system: CCRF-CEM
M19-MEL = test system: M19-MEL
SK-MEL-5 = test system: SK-MEL-5
SF-295 = test system: SF-295
HCT-15 = test system: HCT-15
U-251 = test system: U-251
XF498 = test system: XF498
SF-539 = test system: SF-539
ACHN = test system: ACHN
SF-268 = test system: SF-268
TK-10 = test system: TK-10
HL-60 = test system: HL-60
NCI-H460 = test system: NCI-H460
SK-MEL-28 = test system: SK-MEL-28
DLD-1 = test system: DLD-1
OVCAR-4 = test system: OVCAR-4
IGROV-1 = test system: IGROV-1
OVCAR-3 = test system: OVCAR-3
SW-620 = test system: SW-620
EKVX = test system: EKVX
OVCAR-8 = test system: OVCAR-8
RXF 631 = test system: RXF 631
SK-OV-3 = test system: SK-OV-3
SR = test system: SR
UO-31 = test system: UO-31
K562 = test system: K562
786-0 = test system: 786-0
KM-20L2 = test system: KM-20L2
CAKI-1 = test system: CAKI-1
UACC-257 = test system: UACC-257
NCI-H522 = test system: NCI-H522
HOP-92 = test system: HOP-92
HCT-116 = test system: HCT-116
SK-MEL-2 = test system: SK-MEL-2
HOP-62 = test system: HOP-62

For `O=C1NC(=O)C2C1c1[nH]c3ccccc3c1C1CCCC12` (configuration not stated), the GI50 (DMS-114) was 1.35 µM (inactive), the GI50 (NCI-H226) was 3.61 µM (inactive) and the GI50 (RPMI-8226) was 3.41 µM (inactive). The GI50 (SN12C) was 6.87 µM (inactive), the GI50 (NCI-H23) was 3.79 µM (inactive) and the GI50 (HCC 2998) was 6.55 µM (inactive). For the same compound, the GI50 (DMS-273) was 0.481 µM (active), the GI50 (Malme-3M) was 2.52 µM (inactive) and the GI50 (MOLT-4) was 2.44 µM (inactive). For the same compound, the GI50 (SNB-75) was 2.17 µM (inactive), the GI50 (COLO 205) was 4.23 µM (inactive) and the GI50 (HT-29) was 2.07 µM (inactive). The GI50 (SNB-78) was 6.35 µM (inactive), the GI50 (UACC-62) was 5.47 µM (inactive) and the GI50 (LXFL 529) was 6.37 µM (inactive). The GI50 (OVCAR-5) was > 100 µM (inactive), the GI50 (A549) was 0.916 µM (active) and the GI50 (HOP-18) was 25.3 µM (inactive). The GI50 (A498) was 4.76 µM (inactive), the GI50 (LOX IMVI) was 3.52 µM (inactive) and the GI50 (KM12) was 2.17 µM (inactive). The GI50 (M14) was 1.73 µM (inactive), the GI50 (SNB-19) was 5.07 µM (inactive) and the GI50 (RXF 393) was 2.7 µM (inactive). For the same compound, the GI50 (CCRF-CEM) was 1.86 µM (inactive), the GI50 (M19-MEL) was 0.971 µM (active) and the GI50 (SK-MEL-5) was 0.893 µM (active). For the same compound, the GI50 (SF-295) was 1.29 µM (inactive), the GI50 (HCT-15) was 1.49 µM and the GI50 (U-251) was 3.1 µM (inactive). For the same compound, the GI50 (XF498) was 0.538 µM (active), the GI50 (SF-539) was 3.03 µM (inactive) and the GI50 (ACHN) was 22.3 µM (inactive). For the same compound, the GI50 (SF-268) was 4.02 µM (inactive), the GI50 (TK-10) was 8.75 µM (inactive) and the GI50 (HL-60) was 0.573 µM (active). For the same compound, the GI50 (NCI-H460) was 4.17 µM (inactive), the GI50 (SK-MEL-28) was 4.1 µM (inactive) and the GI50 (DLD-1) was 3.87 µM (inactive). The GI50 (OVCAR-4) was 25.6 µM (inactive), the GI50 (IGROV-1) was 14.1 µM (inactive) and the GI50 (OVCAR-3) was 1.83 µM (inactive). For the same compound, the GI50 (SW-620) was 0.951 µM (active), the GI50 (EKVX) was 6.76 µM (inactive) and the GI50 (OVCAR-8) was 4.93 µM (inactive). For the same compound, the GI50 (RXF 631) was 3.44 µM (inactive), the GI50 (SK-OV-3) was 4.49 µM (inactive) and the GI50 (SR) was 2.81 µM (inactive). For the same compound, the GI50 (UO-31) was 6.55 µM (inactive), the GI50 (K562) was 0.48 µM (active) and the GI50 (786-0) was 5.02 µM (inactive).
In the case of `O=c1c2ccccc2c(=O)c2c1c1[nH]c3ccccc3c1c1c(=O)c3ccccc3c(=O)c21`, the GI50 (KM-20L2) is reported as > 100 µM (inactive), the GI50 (DMS-114) is reported as > 100 µM (inactive) and the GI50 (NCI-H226) is reported as > 100 µM (inactive). For the same compound, the GI50 (CAKI-1) was > 100 µM (inactive), the GI50 (RPMI-8226) was > 100 µM (inactive) and the GI50 (SN12C) was > 100 µM (inactive). For the same compound, the GI50 (NCI-H23) was > 100 µM (inactive), the GI50 (HCC 2998) was > 100 µM (inactive) and the GI50 (DMS-273) was > 100 µM (inactive). The GI50 (Malme-3M) was > 100 µM (inactive), the GI50 (MOLT-4) was > 100 µM (inactive) and the GI50 (SNB-75) was > 100 µM (inactive). For the same compound, the GI50 (UACC-257) was > 100 µM (inactive), the GI50 (COLO 205) was > 100 µM (inactive) and the GI50 (HT-29) was > 100 µM (inactive). The GI50 (NCI-H522) was > 100 µM (inactive), the GI50 (SNB-78) was > 100 µM (inactive) and the GI50 (UACC-62) was > 100 µM (inactive). For the same compound, the GI50 (OVCAR-5) was > 100 µM (inactive), the GI50 (A549) was > 100 µM (inactive) and the GI50 (HOP-18) was > 100 µM (inactive). The GI50 (A498) was > 100 µM (inactive), the GI50 (HOP-92) was > 100 µM (inactive) and the GI50 (LOX IMVI) was > 100 µM (inactive). For the same compound, the GI50 (KM12) was > 100 µM (inactive), the GI50 (M14) was > 100 µM (inactive) and the GI50 (SNB-19) was > 100 µM (inactive). The GI50 (RXF 393) was > 100 µM (inactive), the GI50 (CCRF-CEM) was 94 µM (inactive) and the GI50 (M19-MEL) was > 100 µM (inactive). The GI50 (SK-MEL-5) was > 100 µM (inactive), the GI50 (HCT-116) was > 100 µM (inactive) and the GI50 (SF-295) was > 100 µM (inactive). The GI50 (HCT-15) was over 100 µM, the GI50 (U-251) was > 100 µM (inactive) and the GI50 (XF498) was > 100 µM (inactive). For the same compound, the GI50 (SF-539) was > 100 µM (inactive), the GI50 (ACHN) was > 100 µM (inactive) and the GI50 (SF-268) was > 100 µM (inactive). For the same compound, the GI50 (TK-10) was > 100 µM (inactive), the GI50 (HL-60) was > 100 µM (inactive) and the GI50 (SK-MEL-2) was > 100 µM (inactive). For the same compound, the GI50 (NCI-H460) was > 100 µM (inactive), the GI50 (SK-MEL-28) was > 100 µM (inactive) and the GI50 (HOP-62) was > 100 µM (inactive). For the same compound, the GI50 (DLD-1) was > 100 µM (inactive), the GI50 (OVCAR-4) was > 100 µM (inactive) and the GI50 (IGROV-1) was > 100 µM (inactive). For the same compound, the GI50 (OVCAR-3) was > 100 µM (inactive), the GI50 (SW-620) was > 100 µM (inactive) and the GI50 (EKVX) was > 100 µM (inactive). The GI50 (OVCAR-8) was > 100 µM (inactive), the GI50 (RXF 631) was > 100 µM (inactive) and the GI50 (SK-OV-3) was > 100 µM (inactive). The GI50 (UO-31) was > 100 µM (inactive), the GI50 (K562) was > 100 µM (inactive) and the GI50 (786-0) was > 100 µM (inactive).
With `COc1cc([C@H]2Oc3c(c(O)cc4oc(-c5ccccc5)cc(=O)c34)O[C@@H]2CO)ccc1O` the GI50 (DMS-114) was 20 µM (inactive), the GI50 (NCI-H226) was 71.1 µM (inactive) and the GI50 (CAKI-1) was 63.2 µM (inactive). The GI50 (RPMI-8226) was 7.53 µM (inactive), the GI50 (SN12C) was 35.9 µM (inactive) and the GI50 (NCI-H23) was 38.5 µM (inactive). The GI50 (HCC 2998) was 25.6 µM (inactive), the GI50 (DMS-273) was 8.83 µM (inactive) and the GI50 (Malme-3M) was 24.2 µM (inactive). The GI50 (MOLT-4) was > 10 µM (inactive), the GI50 (SNB-75) was 28.9 µM (inactive) and the GI50 (COLO 205) was 31.8 µM (inactive). For the same compound, the GI50 (NCI-H522) was 19.1 µM (inactive), the GI50 (SNB-78) was > 100 µM (inactive) and the GI50 (UACC-62) was 29.9 µM (inactive). For the same compound, the GI50 (LXFL 529) was 24.3 µM (inactive), the GI50 (A498) was 67 µM (inactive) and the GI50 (HOP-92) was 31.7 µM (inactive). The GI50 (M14) was 17.5 µM (inactive), the GI50 (CCRF-CEM) was 4.34 µM (inactive) and the GI50 (M19-MEL) was 24.7 µM (inactive). For the same compound, the GI50 (HCT-116) was 21.5 µM (inactive), the GI50 (XF498) was 25.4 µM (inactive) and the GI50 (SF-539) was > 100 µM (inactive). For the same compound, the GI50 (SF-268) was 11.7 µM (inactive), the GI50 (HL-60) was 13.7 µM (inactive) and the GI50 (SK-MEL-2) was 22.8 µM (inactive). For the same compound, the GI50 (NCI-H460) was 5.14 µM (inactive), the GI50 (SK-MEL-28) was 45.8 µM (inactive) and the GI50 (HOP-62) was > 100 µM (inactive). The GI50 (DLD-1) was 16.6 µM (inactive), the GI50 (OVCAR-4) was 23.8 µM (inactive) and the GI50 (IGROV-1) was 51.8 µM (inactive). The GI50 (RXF 631) was 23.8 µM (inactive), the GI50 (SK-OV-3) was 84.9 µM (inactive) and the GI50 (SR) was 8.87 µM (inactive). The GI50 (UO-31) was 31.9 µM (inactive), the GI50 (K562) was 21.6 µM (inactive) and the GI50 (786-0) was 21.9 µM (inactive).
